Experimental data: patent publication US12624068B2, “Exon skipping by peptide nucleic acid derivatives” (OliPass Corporation, priority 2016, dated 2026)
[C(1O2)] = modified PNA monomer acting as cytosine, C(pOq) type, 1O2; [A(5)] = modified PNA monomer acting as adenine, A(p) type, p=5; [G(6)] = modified PNA monomer acting as guanine, G(p) type, p=6; {Fethoc} = N-terminal Fethoc cap; {NH2} = C-terminal amide

Experiments:
[1] = system: sodium current in PC3 cells; experiment: CoroNa assay of sodium current in PC3 cells; assay type: cell-based, human; conditions: 30 hours
Procedure: Cellular sodium current is measured by patch clamp. As sodium ions enter cell, the intra-cellular sodium ion level increases. The intra-cellular sodium level can be probed using a sodium ion sensitive dye. “CoroNa Green” is a dye with a sodium ion chelator of crown ether type. Upon chelation with a sodium ion, “CoroNa Green” emits green fluorescence. “CoroNa Green” has been used to indirectly measure the intra-cellular sodium level. […] [Proc. Natl. Acad. Sci. USA vol 106(38), 16145-16150 (2009)]
PC3 cells are known to abundantly express the human SCN9A mRNA, although there are other SCN subtypes concomitantly expressed. [Br J. Pharmacol. vol 156, 420-431 (2009)] Thus an inhibition of SCN9A mRNA expression may lead to a considerable reduction of the sodium current in PC3 cells, if the sodium ion current by the Nav1.7 sodium channel subtype occupies a marked portion of the total sodium ion current in PC3 cells. It is note that the SCN9A mRNA encodes the Nav1.7 sodium channel subtype.
“SCN-ASO 7” was evaluated for its ability to inhibit the sodium ion current in PC3 cells using “CoroNa Green” as follows.
[ASO Treatment] PC3 cells grown in 35 mm culture dish containing 2 mL F-12K medium were treated with “SCN-ASO 7” at 0 zM (negative control), 100 zM or 1 aM.
[CoroNa Assay] 30 hours later, the cells were washed with 2 mL HBSS (Hank's Balanced Salt Solution, Cat. Number 14025-092, Life Technologies), and then charged with 2 mL fresh HBSS. Then the cells were treated with 5 μM “CoroNa Green” (Cat. Number C36676, Life Technologies) at 37° C. 30 min later, the cells were washed 2× with 2 mL HBSS, and charged with 2 mL fresh HBSS. The culture dish was mounted on an Olympus fluorescence microscope equipped with a digital video camera to continuously capture the green fluorescence images of the cells. The cells were acutely treated with 100 mM NaCl, and then the changes in fluorescence cellular images were digitally recorded over a period of 3 min. There were about 4 cells per frame on average. The fluorescence intensities from each individual cell were traced at the resolution of a second. The traces of the intracellular fluorescence intensities from individual cells were overlaid and averaged at each time point. The average of the traces from the individual cells of each ASO concentration were plotted as provided in FIG. 30A using ImageJ program (version 1.50i, NIH). The average fluorescence intensity trace was taken as the individual intra-cellular sodium concentration trace for the cells treated with “SCN-ASO 7” at 0 (negative control), 100 or 1,000 zM.
“SCN-ASO 3” was evaluated for its ability to inhibit the sodium current in PC3 cells using “CoroNa Green” according to the protocol described in “SCN9A Example 5”, unless noted otherwise.
“SCN-ASO 8” was evaluated for its ability to inhibit the sodium current in PC3 cells using “CoroNa Green” according to the protocol described in “SCN9A Example 3”, unless noted otherwise.

SCN9A mRNA = experiment: SCN9A nested qPCR by SYBR Green in PC3 cells; assay type: cell-based, human; conditions: 24 hours
Procedure: “SCN-ASO 7” was evaluated for its ability to inhibit the expression of the human SCN9A mRNA in PC3 cells by qPCR against a set of exon-specific primers as follows. [Cell Culture & ASO Treatment] PC3 cells grown in 60 mm culture dish containing 5 mL culture medium were incubated with “SCN-ASO 7” for 24 hours at 0 (negative control), 10, 100 or 1,000 zM. (2 culture dishes per concentration) [RNA Extraction] […] [cDNA Synthesis by One Step RT-PCR] […] NO: 78); and SCN-exon 9_reverse: (5'→3') […] NO: 79)]. […] [Nested qPCR Amplification] […] NO: 80); SCN-exon 4_reverse: (5'→3') […] NO: 81); SCN-exon 5_forward: (5'→3') […] NO: 82); SCN-exon 5_reverse: (5'→3') […] NO: 83); SCN-exon 6_forward: (5'→3') […] NO: 84); SCN-exon 6_reverse: (5'→3') […] NO: 85)]. The PCR reactions were probed with SYBR Green (Takara, Japan). […] “SCN-ASO 3” was evaluated for its ability to inhibit the expression of the full-length SCN9A mRNA in PC3 cells according to the protocol described in “SCN9A Example 2”, unless noted otherwise. “SCN-ASO 8” was evaluated for its ability to inhibit the expression of the full-length SCN9A mRNA in PC3 cells according to the protocol described in “SCN9A Example 2”, unless noted otherwise.

serum myoglobin = experiment: Serum myoglobin level in mdx mice; assay type: in vivo; conditions: DMD-ASO 1 50 pmole/Kg, DMD-ASO 2 or DMD-ASO 6 10 pmole/Kg, 2× per week, Week 66
Procedure: [Terminal Sacrifice] In Week 48, the animals were subjected to terminal sacrifice for blood sampling. The blood samples were analyzed for the serum level of CK (Creatine Kinase Activity Assay Kit, Cat. Number ab155901, Abcam) and myoglobin (Myoglobin ELISA Kit, Cat. Number ab210965, Abcam) to assess the degree of muscle degradation according to the manufacturer's instructions. Muscle tissues were analyzed by western blot for the full-length dystrophin.
[Terminal Sacrifice] All the survived animals were sacrificed for blood sampling in Week 66 post the grouping. The blood samples were subjected to ELISA assays for serum creatine kinase (CK) and serum myoglobin as described in “DMD Example 6”.

Substance	decrease of sodium current (CoroNa) ([1]; PC3 cells, 100 zM)	decrease of sodium current / sodium channel activity (CoroNa) ([1]; PC3 cells, 1,000 zM) [%]	average cellular fluorescence intensity (CoroNa Green) ([1]; PC3 cells, 1,000 zM, at 100 sec after 100 mM NaCl) [arbitrary unit]	decrease of expression levels of SCN9A exons 4-6 (SYBR Green) (SCN9A mRNA; PC3 cells, 10 zM) [%]	decrease of expression levels of SCN9A exons 4-6 (SYBR Green) (SCN9A mRNA; PC3 cells, 100 zM) [%]	decrease of expression levels of SCN9A exons 4-6 (SYBR Green) (SCN9A mRNA; PC3 cells, 1,000 zM)	serum myoglobin level smaller than the mdx negative control group by (serum myoglobin) [%]
Fethoc-AC(1O2)T-TA(5)C-G(6)CA-A(5)AA(5)-AC(1O2)A-A(5)-NH2 (ACTTACGCAAAAACAA; all peptide nucleic acid (PNA), [C(1O2)] at 2, 14, [A(5)] at 5, 10, 12, 16, [G(6)] at 7, 5' {Fethoc}, 3' {NH2}; peptide nucleic acid written N to C) [SCN-ASO 7]	no notable decrease	37	51.47	~70	40	20-30%	–
Fethoc-A(5)GA-G(6)CC(1O2)-TCA-A(5)AA(5)-T-NH2 (antisense AGAGCCTCAAAAT; Fethoc N-cap, C-terminal amide, chemistry not fully specified) [DMD-ASO 1]	–	–	–	–	–	–	43
